What follows are molecules tested against T1, human TRH-DE (Homo sapiens, UniProt Q9UKU6) (assay: TRH-DE inhibition test (RapidFire MS measurement of product Cyclo (His-Pro))). Settings: membrane fraction of Expi 293 cells expressing human TRH-DE; 10 μM TRH substrate; room temperature, 2 hours; 16-point concentration test.
T1 construct: expressed in transfected cells; host or cells: Expi 293 cells (transient expression), membrane fraction
T1 sequence (Q9UKU6 1-1069): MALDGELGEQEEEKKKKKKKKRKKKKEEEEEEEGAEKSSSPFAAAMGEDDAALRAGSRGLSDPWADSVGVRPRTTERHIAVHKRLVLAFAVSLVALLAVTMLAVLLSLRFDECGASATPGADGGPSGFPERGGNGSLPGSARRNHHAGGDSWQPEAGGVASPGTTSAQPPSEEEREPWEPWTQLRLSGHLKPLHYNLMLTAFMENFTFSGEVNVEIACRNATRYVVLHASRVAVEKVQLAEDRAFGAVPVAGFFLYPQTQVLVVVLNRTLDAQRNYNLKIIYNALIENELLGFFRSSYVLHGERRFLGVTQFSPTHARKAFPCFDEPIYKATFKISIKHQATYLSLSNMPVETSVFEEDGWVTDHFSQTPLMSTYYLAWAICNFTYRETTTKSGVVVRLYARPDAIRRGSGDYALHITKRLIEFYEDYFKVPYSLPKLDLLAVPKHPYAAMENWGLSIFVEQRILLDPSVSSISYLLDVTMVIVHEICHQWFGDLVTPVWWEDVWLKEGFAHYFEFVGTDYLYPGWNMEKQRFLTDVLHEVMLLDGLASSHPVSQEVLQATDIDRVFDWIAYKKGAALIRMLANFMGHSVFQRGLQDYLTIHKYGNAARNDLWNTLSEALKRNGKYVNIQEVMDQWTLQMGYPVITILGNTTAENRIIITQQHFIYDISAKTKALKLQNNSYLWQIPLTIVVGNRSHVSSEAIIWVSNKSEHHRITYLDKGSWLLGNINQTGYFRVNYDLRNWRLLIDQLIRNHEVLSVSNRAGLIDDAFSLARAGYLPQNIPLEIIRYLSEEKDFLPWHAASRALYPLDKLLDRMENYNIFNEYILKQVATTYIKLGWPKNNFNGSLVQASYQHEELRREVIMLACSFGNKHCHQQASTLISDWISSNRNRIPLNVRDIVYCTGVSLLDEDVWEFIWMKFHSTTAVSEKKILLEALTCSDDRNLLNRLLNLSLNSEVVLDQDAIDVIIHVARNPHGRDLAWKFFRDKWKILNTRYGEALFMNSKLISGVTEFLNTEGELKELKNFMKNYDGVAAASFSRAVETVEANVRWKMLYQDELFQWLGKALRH
Type: biochemical
Summary of the method: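 Membrane fraction from Expi 293 cells transiently expressing human TRH-DE, at 4 μg/ml in phosphate buffer pH 7.4 with 200 μM bacitracin, reacted with compound and 10 μM substrate for 2 h at room temperature. Cyclo(His-Pro) measured by RapidFire MS against an isotope internal standard. IC50 from 16-point curves.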

Structure (SMILES)	IC50
C[C@@H]1COc2nc(Cl)cnc2C(=O)N1C1CC2(C1)CN(S(=O)(=O)c1ccccc1F)C2 [Example 40, (7R)-3-chloro-8-[2-(2-fluorophenyl)sulfonyl-2-azaspiro[3.3]heptan-6-yl]-7-methyl-6,7-dihydropyrazino[2,3-f][1,4]oxazepin-9-one]	5 nM
CC[C@@H]1COc2ncc(F)cc2C(=O)N1C1CC2(C1)CN(S(=O)(=O)c1ccccc1F)C2 [Example 41]	70 nM
C[C@@H]1COc2nc(F)ccc2C(=O)N1C1CC2(C1)CN(S(=O)(=O)c1ccccc1F)C2 [Example 42]	9 nM
CC[C@@H]1COc2nc(F)ccc2C(=O)N1C1CC2(C1)CN(S(=O)(=O)c1ccccc1F)C2 [Example 43]	32 nM
C[C@@H]1COc2nc(C(F)(F)F)ncc2C(=O)N1C1CC2(C1)CN(S(=O)(=O)c1ccccc1F)C2 [Example 44]	14 nM
C[C@@H]1COc2cc(C3CC3)ncc2C(=O)N1C1CC2(C1)CN(S(=O)(=O)c1ccccc1[N+](=O)[O-])C2 [Example 53]	42 nM
C[C@@H]1COc2nc(C3CC3)ccc2C(=O)N1C1CC2(C1)CN(S(=O)(=O)c1ccccc1[N+](=O)[O-])C2 [Example 55]	54 nM
C[C@@H]1COc2nc(C(F)(F)F)ccc2C(=O)N1C1CC2(C1)CN(S(=O)(=O)c1ccccc1F)C2 [Example 56]	8 nM
C[C@@H]1COc2nc(C(F)(F)F)ccc2C(=O)N1C1CC2(C1)CN(S(=O)(=O)c1ccccc1[N+](=O)[O-])C2 [Example 57]	253 nM
Cc1nc2c(cc1F)C(=O)N(C1CC3(C1)CN(S(=O)(=O)c1ccccc1[N+](=O)[O-])C3)[C@H](C)CO2 [Example 58]	180 nM
O=C1c2cccnc2OC[C@@H](C2CC2)N1C1CC2(C1)CN(S(=O)(=O)c1ccccc1F)C2 [Example 60]	49 nM
O=C1c2cccnc2OCC2(CC2)N1C1CC2(C1)CN(S(=O)(=O)c1ccccc1F)C2 [Example 61]	653 nM
O=C1c2ccc(C(F)(F)F)nc2OCC2(CC2)N1C1CC2(C1)CN(S(=O)(=O)c1ccccc1F)C2 [Example 62]	393 nM
O=C1c2cccnc2CC(C(F)(F)F)N1C1CC2(C1)CN(S(=O)(=O)c1ccccc1F)C2 (centres unmarked) [Example 68]	120 nM
CCn1c2ccccc2c(=O)n1C1CC2(C1)CN(S(=O)(=O)c1cc(C)ccc1F)C2 [Example 69]	66 nM
Cc1ccc(F)c(S(=O)(=O)N2CC3(CC(N4C(=O)c5cccnc5OCC4C)C3)C2)c1 (centres unmarked) [Example 70, 4-[2-(2-fluoro-5-methyl-phenyl)sulfonyl-2-azaspiro[3.3]heptan-6-yl]-3-methyl-2,3-dihydropyrido[3,2-f][1,4]oxazepin-5-one]	25 nM
CC1COc2ncccc2C(=O)N1C1CC2(C1)CN(S(=O)(=O)c1ccccc1)C2 (centres unmarked) [Example 84, 4-[2-(benzenesulfonyl)-2-azaspiro[3.3]heptan-6-yl]-3-methyl-2,3-dihydropyrido[3,2-f][1,4]oxazepin-5-one]	85 nM
Cc1nc2c(s1)C(=O)N(C1CC3(C1)CN(S(=O)(=O)c1ccccc1F)C3)[C@H](C)CC2 [Example 90]	23 nM
C[C@@H]1CCc2nc(C(C)(F)F)sc2C(=O)N1C1CC2(C1)CN(S(=O)(=O)c1ccccc1F)C2 [Example 91]	8 nM
C[C@@H]1CCc2nc([C@H]3C[C@H]3F)sc2C(=O)N1C1CC2(C1)CN(S(=O)(=O)c1ccccc1F)C2 [Example 95]	4 nM
C[C@@H]1CCc2nc([C@@H]3C[C@@H]3F)sc2C(=O)N1C1CC2(C1)CN(S(=O)(=O)c1ccccc1F)C2 [Example 96]	2 nM
C[C@@H]1CCc2nc(C3(C(F)(F)F)CC3)sc2C(=O)N1C1CC2(C1)CN(S(=O)(=O)c1ccccc1F)C2 [Example 97]	3 nM
Cc1snc2c1CC[C@@H](C)N(C1CC3(C1)CN(S(=O)(=O)c1ccccc1F)C3)C2=O [Example 99]	16 nM
Cc1nsc2c1C(=O)N(C1CC3(C1)CN(S(=O)(=O)c1ccccc1F)C3)[C@H](C)CC2 [Example 100]	16 nM

Structure (SMILES)	IC50
C[C@@H]1CCc2oc(C3CC3)nc2C(=O)N1C1CC2(C1)CN(S(=O)(=O)c1ccccc1F)C2 [Example 101]	14 nM
Cc1onc2c1CC[C@@H](C)N(C1CC3(C1)CN(S(=O)(=O)c1ccccc1F)C3)C2=O [Example 103]	10 nM
CC1CCc2c(noc2C2CC2)C(=O)N1C1CC2(C1)CN(S(=O)(=O)c1ccccc1F)C2 (centres unmarked) [Example 104]	14 nM
Cc1noc2c1C(=O)N(C1CC3(C1)CN(S(=O)(=O)c1ccccc1F)C3)[C@H](C)CC2 [Example 105]	14 nM
C[C@@H]1CCc2nc(C3(F)CC3)sc2C(=O)N1C1CC2(C1)CN(S(=O)(=O)c1ccccc1F)C2 [Example 109, (6R)-2-(1-fluorocyclopropyl)-5-[2-(2-fluorophenyl)sulfonyl-2-azaspiro[3.3]heptan-6-yl]-6-methyl-7,8-dihydro-6H-thiazolo[5,4-c]azepin-4-one]	3 nM
CC(C)c1nc2c(s1)C(=O)N(C1CC3(C1)CN(S(=O)(=O)c1ccccc1F)C3)[C@H](C)CC2 [Example 110, (6R)-5-[2-(2-fluorophenyl)sulfonyl-2-azaspiro[3.3]heptan-6-yl]-2-isopropyl-6-methyl-7,8-dihydro-6H-thiazolo[5,4-c]azepin-4-one]	4 nM
CC1C=Cc2nc(C(F)(F)F)ccc2C(=O)N1C1CC2(C1)CN(S(=O)(=O)c1ccccc1F)C2 (centres unmarked) [Example 111, 6-[2-(2-fluorophenyl)sulfonyl-2-azaspiro[3.3]heptan-6-yl]-7-methyl-2-(trifluoromethyl)-7H-pyrido[3,2-c]azepin-5-one]	60 nM
Cc1nc2c(s1)C(=O)N(C1CC3(C1)CN(S(=O)(=O)c1ccccc1F)C3)[C@H](C)C=C2 [Example 116]	116 nM
C[C@@H]1C=Cc2nc(C(C)(F)F)sc2C(=O)N1C1CC2(C1)CN(S(=O)(=O)c1ccccc1F)C2 [Example 117]	46 nM
C[C@@H]1C=Cc2nc(C3(F)CC3)sc2C(=O)N1C1CC2(C1)CN(S(=O)(=O)c1ccccc1F)C2 [Example 121]	21 nM
C[C@@H]1C=Cc2nc([C@@H]3C[C@@H]3F)sc2C(=O)N1C1CC2(C1)CN(S(=O)(=O)c1ccccc1F)C2 [Example 122]	15 nM
C[C@@H]1C=Cc2nc([C@H]3C[C@H]3F)sc2C(=O)N1C1CC2(C1)CN(S(=O)(=O)c1ccccc1F)C2 [Example 123]	15 nM
C[C@@H]1C=Cc2nc(C3(C(F)(F)F)CC3)sc2C(=O)N1C1CC2(C1)CN(S(=O)(=O)c1ccccc1F)C2 [Example 124]	17 nM
Cc1snc2c1C=C[C@@H](C)N(C1CC3(C1)CN(S(=O)(=O)c1ccccc1F)C3)C2=O [Example 126]	24 nM
Cc1nsc2c1C(=O)N(C1CC3(C1)CN(S(=O)(=O)c1ccccc1F)C3)[C@H](C)C=C2 [Example 127]	21 nM
C[C@@H]1C=Cc2oc(C3CC3)nc2C(=O)N1C1CC2(C1)CN(S(=O)(=O)c1ccccc1F)C2 [Example 128]	224 nM
Cc1onc2c1C=C[C@@H](C)N(C1CC3(C1)CN(S(=O)(=O)c1ccccc1F)C3)C2=O [Example 130]	136 nM
Cc1noc2c1C(=O)N(C1CC3(C1)CN(S(=O)(=O)c1ccccc1F)C3)[C@H](C)C=C2 [Example 132]	131 nM
CC1C2C(c3nc(C4CC4)sc3C(=O)N1C1CC3(C1)CN(S(=O)(=O)c1ccccc1F)C3)C2(F)F (stereo not drawn) [Example 133, (2R*,4S*,5R*)-10-cyclopropyl-3,3-difluoro-6-[2-(2-fluorophenyl)sulfonyl-2-azaspiro[3.3]heptan-6-yl]-5-methyl-9-thia-6,11-diazatricyclo[6.3.0.02.4]undec-1(8),10-dien-7-one]	4 nM
C[C@@H]1COc2cc(N3CCOCC3)ncc2C(=O)N1C1CC2(C1)CN(S(=O)(=O)c1ccccc1F)C2 [Example 134, (3R)-4-[2-(2-fluorophenyl)sulfonyl-2-azaspiro[3.3]heptan-6-yl]-3-methyl-8-morpholino-2,3-dihydropyrido[3,4-f][1,4]oxazepin-5-one]	2 nM
CCCCN(C)c1cc2c(cn1)C(=O)N(C1CC3(C1)CN(S(=O)(=O)c1ccccc1F)C3)[C@H](C)CO2 [Example 135]	1 nM
C[C@@H]1COc2cc(NC3CCCC3)ncc2C(=O)N1C1CC2(C1)CN(S(=O)(=O)c1ccccc1F)C2 [Example 136]	1 nM
C[C@@H]1COc2cc(N(C)C3CCCC3)ncc2C(=O)N1C1CC2(C1)CN(S(=O)(=O)c1ccccc1F)C2 [Example 137]	1 nM
